Data from patent publication US20090076067A1, “PHARMACEUTICAL COMPOSITION COMPRISING AZARHODACYANINE COMPOUND AS ACTIVE INGREDIENT” (priority 2005, published 2009).
Values after ≈ are worked out from the molar mass of the structure shown. Where two headings read alike, the source gives them in different places.

How the values were obtained:
[1] = system: Trypanosoma cruzi (Tulahuen C2C4 strain); assay: American trypanosoma protozoa proliferation inhibition screening test; type: cell-based; settings: Tulahuen C2C4 strain in rat L6 cells, 96 hours, CPRG/Nonidet
Experimental: In this experiment, amastigote and trypomastigote of Trypanosoma cruzi (Tulahuen C2C4 strain) infected to rat L6 cells were used. The medium used in the experiment was prepared as follows: to RPMI 1640 medium containing L6 cells, L-glutamine (200 mM) and fetal bovine serum was added to achieve concentration of 1% and 10%, respectively. The culture was conducted under CO2 concentration 5% and temperature 37° C.
Either the compound of the invention or a positive control (benznidazole) was dissolved into DMSO to prepare test solution having predefined concentration. To each well in a 96-well culture plate, medium containing 5×10^3 protozoa was added and precultured for 48 hours. After replacing the medium, either the test solution containing compound of the invention in predefined concentration or DMSO without compound was added. The test solution was duplicated.
The plate was cultured in an incubator for 96 hours, and the proliferation inhibition activity was examined. The activity was determined as follows. To each well, 50 μL CPRG/Nonidet was added, then left for 2 to 6 hours. Then the culture plate was mounted on an absorption microplate reader to determine absorption at 540 nm. The trypanosoma infection rate of the sample containing the test compound and that of the control sample was calculated.
(§1) Using the protozoa infection rate thus obtained, the proliferation inhibition rate was calculated according to the following equation to determine 50% proliferation inhibition concentration (EC50).
(§2) Proliferation inhibition rate(%)={1−(b−a)/(c−a)}×100
(§3) a: initial infection rate b: infection rate of the test compound solution c: infection rate of the control

[2] = system: Plasmodium Falciparum k1 strain; assay: Chloroquine-resistant tropical malaria protozoa proliferation inhibition screening test; type: cell-based; settings: for Selective toxicity: EC50 rat L6 cells / EC50 Chloroquine-resistant malaria protozoa; for EC50: Plasmodium falciparum
Experimental: In this experiment, Plasmodium Falciparum k1 strain protozoa were used. The medium used in the experiment was filter-sterilized RPMI-1640 medium. To the medium human serum was added to achieve 5% concentration. The protozoa was cultured under condition of O2 concentration 3%, CO2 concentration 4%, N2 concentration 93%, and temperature 37° C.
The cultured malaria infected red blood cells were collected by centrifugation, diluted with non-infected red blood cells, to achieve initial infection rate 0.15%. The hematocrit was 2.5%.
To each well in a 96-well culture plate, 200 μL malaria infected culture was added, and either test solution containing test compound at predefined concentration or DMSO having no test compound was added. Each test solution was prepared in duplicate. After 48 hours culture under 37° C., hypoxanthine labeled with radioactive tritium (^3H) of 0.5 μCi was added to each well. After culturing under same condition for 24 hours, the product was collected on a glass fiber filter and washed. The intensity of radiation was measured by Beta plate liquid scintillation counter (Wallac Inc.), to determine malaria protozoa infection rate in test compound samples and control samples.
Using the malaria protozoa infection rate, the proliferation inhibition rate was calculated according to the following equation to determine 50% proliferation inhibition concentration (EC50).
as §2
(§4) a: initial infection rate b: infection rate of test compound solution c: infection rate of the control

[3] = Rat L6 cell proliferation inhibition test; type: cell-based; settings: read-out: EC50 cytotoxicity L6
Experimental: (§5) Rat-derived L6 cells (rat skeletal myoblast cell) were used for this test. […] The sample was cultured under CO2 concentration 5% and temperature 37° C. Either the composition of the invention or control was dissolved into DMSO, to prepare test solutions having predefined concentration.
(§6) The samples were precultured until logarithmic growth phase was reached. Then the culture was transferred to each well in a 96-well culture plate, and either test solution containing test compound at predefined concentration or DSMO without compound was added. The test solution was duplicated.
(§7) The plate was cultured in an incubator for 72 hours, to examine proliferation inhibition activity. The activity was examined as follows. Alamar Blue water solution 10 μL was added to each well, and culture was continued for 2 hours. Next, the culture plate was mounted on a fluorescence microplate reader (Spectramax Gemeni XS; Molecular Devices Corporation, U.S.), and irradiated with excitation wavelength 536 nm to determine fluorescence at 588 nm. The survival rate of L6 cells in the test solution sample and control sample was calculated.
(§8) Proliferation inhibition rate(%)={(C−A)/(B−A)}×100
(§9) A: Initial cell count B: Cell count in control after 3 days C: Cell count in test solution after 3 days

[4] = system: Plasmodium berghei NK 65 strain; assay: animal or person; type: in vivo; settings: for Survival days (mean survival days, treatment group minus control group) / Recovery Rate (suppression): dose 25 mg/kg/d intraperitoneally, 4 days; for Recovery Rate (suppression): P. berghei infected ICR mice
Text: For a test to evaluate therapeutic effect of the compound, 4-day suppressive test which is commonly used for in vivo test to evaluate activity of anti-malaria compound was used. In this experiment, rodent malaria protozoa (Plasmodium berghei NK 65 strain) were used. The infected blood was collected from 5-weeks age (SPF) ICR strain male mouse which were infected intraperitoneally and successively cultured. From the caudal vein of the infected mouse, blood was collected to calculate infection rate. After confirming that infection rate was adequately elevated (10% to 20% infection), the malaria infected blood was collected from the heart of the mouse. The infection rate and count of the red blood cells (cells/mL) were calculated. The infected red blood cell was diluted with PBS buffer to achieve […] protozoa per 0.2 mL dose. The infected cells were injected to the caudal vein of uninfected mouse (ICR strain, male, 5-weeks age) to cause infection. Five mice were made into one group, and the test compound was administered in predefined concentration. From 2 hours after infection, the compound was administered every 24 hours for straight 4 days.
The compound of the invention to be used in this test was dissolved in saline (Otsuka Pharmaceutical Co., Ltd.) to obtain test solution of predefined concentration. When the compound was not dissolved in saline, it was dissolved in SSV (saline containing 0.5% sodium=carboxymethyl cellulose, 0.5% benzyl alcohol, 0.4% Tween 80) to prepare test solution. For the control group (non-treatment group), only saline (Otsuka) was administered. Positive controls S-1 to S-5 were dissolved in saline (Otsuka) or SSV in predetermined concentration to prepare test solution. When the compound was not dissolved in saline, it was dissolved in SSV. After measuring weight of each mouse, the dose for each mouse was calculated to achieve 5.0 to 40 mg concentration for weight1 kg.
Five mice were made into one group, and the test compound was administered intraperitoneally at predefined concentration. From 2 hours after infection, the compound was administered every 24 hours for straight 4 days. Subsequent to the 24 hours after last treatment, blood was collected from the tail of the mouse to prepare thin layer smear in order to count malaria protozoa infection in the treatment group and the control group under microscope. The mice showing maximum value and minimum value were excluded from the average calculation (average was calculated for three mice), to determine malaria protozoa infection rate (Parasitemia).
Using malaria protozoa infection rate thus calculated, recovery rate obtained from the test compound (suppression) was determined.
Recovery rate: suppression(%)=(b−a)/b×100 a: Protozoa infection rate in the treatment group b: Protozoa infection rate in the control group Mean survival days: MSD(day)=c−d c: Average days from the initial treatment (date of malaria infection) to the date of death for the treatment group (5 mice) d: Average days from the date of malaria infection to the date of death for the non-treatment (control) group (5 mice) […]
Tables 5 to 7 illustrate the recovery rate (%) and survival days (day) of malaria infected mice treated with intraperitoneal injection of the test compound and the control compound at predefined concentration. The meaning of symbols in the table is as follows.

[5] = system: Trypanosoma brucei rhodensiense (STIB 900 strain); assay: African trypanosoma protozoa proliferation inhibition screening test; type: cell-based; settings: for EC50 Trypanosoma brucei rhod.: STIB 900 bloodstream form, 72 hours, Alamar blue
Experimental: In this experiment, bloodstream form trypomastigote of Trypanosoma brucei rhodensiense (STIB 900 strain) was used. The medium used in the experiment was prepared as follows: to filter-sterilized MEM medium, 25 mM N-2-hydroxyethylpiperazine-2-ethane sulfonate (HEPES), 1 g/L glucose, 1% MEM nonessential amino acid, 0.2 mM 2-mercaptoethanol, 2 mM pyruvic calcium salt, 0.1 mM hypoxanthine, and 15% heat-treated horse serum were added. The protozoa was cultured under atmosphere of CO2 concentration 5% and temperature 37° C.
Either the compound of the invention or a positive control (melarsoprol) was dissolved into dimethylsulfoxide (DMSO) to prepare test solution having predefined concentration. To each well in a 96-well culture plate, medium containing 8×10^3 protozoa, and either test solution containing the test compound at predefined concentration or DMSO without compound was added. Then medium was added to achieve 100 μL. The test solution was duplicated.
The culture plate was cultured in an incubator for 72 hours, and the proliferation inhibition activity was examined. The activity was determined as follows. To each well, 10 μL Alamar blue water solution was added, then the plate was again cultured for 2 hours. Then the culture plate was mounted on a fluorescence microplate reader (Spectramax Gemeni XS; Molecular Devices Corporation, U.S.), and irradiated with 536 nm excitation wavelength to determine fluorescence at 588 nm. The trypanosoma infection rate of the sample containing the test composition and that of the control sample was calculated.
as §1, §2, §3

[6] = system: Rat-derived L6 cells (rat skeletal myoblast cell); assay: Rat L6 cell proliferation inhibition test; type: cell-based; settings: Alamar Blue
Experimental: as §5, §6, §7, §8, §9

[7] = system: Leishmania donovani (MHOM/ET/67/L82 strain); assay: Leishmania protozoa proliferation inhibition screening test; type: cell-based; settings: amastigote, 72 hours, Alamar blue
Experimental: In this experiment, Leishmania donovani (MHOM/ET/67/L82 strain) was used. The protozoa were successively cultured in Syrian Golden hamsters to obtain amastigote. The medium used in the experiment was SM medium having heat-treated fetal bovine serum 10% added, and pH prepared to 5.4. The culture was conducted under CO2 concentration 5% and temperature 37° C.
Either the compound of the invention or a positive control (miltefosine) was dissolved into DMSO to prepare test solution having predefined concentration. To each well of a 96-well culture plate, medium containing predetermined number of protozoa was added and the culture was pre-treated. The concentration of amastigote was determined by CASY cell analyze system (Scharfe GMBH Co., Germany). Subsequently, either test solution containing compound of the invention in predefined concentration or DMSO without compound was added. The test solution was duplicated.
The plate was cultured in an incubator for 72 hours, and the proliferation inhibition activity was examined. The activity was determined as follows. To each well, 10 μL Alamar blue aqueous solution was added, then cultured again for 2 hours. Then the culture plate was mounted on a fluorescence microplate reader (Spectramax Gemeni XS; Molecular Devices Corporation, U.S), and irradiated 536 nm excitation wavelength to determine […] at 588 nm. The leishmania infection rate of the sample containing the test compound and that of the control sample was calculated.
as §1, §2, §4

[8] = chloroquine-resistant K1 strain, 3H-hypoxanthine uptake, read-out: EC50 P. falciparum K1
[9] = L6 cells (rat skeletal myoblasts), Table 1, Alamar Blue
[10] = chloroquine-resistant K1 strain, 3H-hypoxanthine uptake

Compound: O=C(Cn1ccnc1[N+](=O)[O-])NCc1ccccc1 [Benznidazole, reference compound]
- EC50 ([1]; Trypanosoma cruzi, read-out: EC50 Trypanosoma cruzi): 0.87 µg/mL (≈ 3.34 µM)

Compound: CCN(CC)CCCC(C)Nc1ccnc2cc(Cl)ccc12 (stereo not shown) [Chloroquine, reference compound]
- Selective toxicity [2]: 1300
- EC50 ([2]; K1, read-out: EC50 P. falciparum K1): 0.047 µg/mL (≈ 0.147 µM)
- EC50 at 72 h ([3]; Table 1, rat L6 cells, Alamar Blue): 60 µg/mL (≈ 188 µM)

Compound: CCN1C(=O)/C(=c2\nc3c(s2)=CC=CN3C)S/C1=N\c1cccc[n+]1C.[Cl-] [Compound A-22]
- Selective toxicity [2]: >782
- EC50 [2, 8]: 0.0115 µg/mL
- EC50 at 72 h [3, 9]: > 90 µg/mL

Compound: CCn1c(=O)/c(=c2\nc3c(o2)=CC=CN3C)s/c1=C1\S/C(=N\c2scc[n+]2C)N(Cc2ccccc2)C1=O [Compound B-22]
- EC50 P. falciparum K1 [2, 10]: 0.005 µg/mL
- Survival days (mean survival days, treatment group minus control group) [4]: 9.0 days
- Recovery Rate (suppression) [4]: 72.4%
- EC50 Trypanosoma brucei rhod. [5]: 0.068 µg/mL
- EC50 cytotoxicity L6 ([6]; Table 1, 72 hours): >90 µg/mL

Compound: CCN1C(=O)/C(=c2/s/c(=C3/C=CC=CN3C)c(=O)n2CC)S/C1=N\c1sc2cc(F)ccc2[n+]1C [Compound B-32]
- EC50 P. falciparum K1 [2, 10]: 0.0162 µg/mL
- Survival days (mean survival days, treatment group minus control group) [4]: 4.8 days
- Recovery Rate (suppression) [4]: 79.5%
- EC50 Trypanosoma brucei rhod. [5]: 0.1585 µg/mL
- EC50 Leishmania donovani [7]: 0.2195 µg/mL
- EC50 cytotoxicity L6 ([6]; Table 1, 72 hours): 15.88 µg/mL
- EC50 cytotoxicity L6 ([6]; Table 2, 72 hours): 15.88 µg/mL
- EC50 cytotoxicity L6 ([6]; Table 4, 72 hours): 15.88 µg/mL

Compound: CCn1c(=O)/c(=C2\SCCN2C)s/c1=C1\S/C(=N\c2scc[n+]2C)N(C(C)C)C1=O [Compound B-35]
- Selective toxicity [2]: 3630
- EC50 [2, 8]: 0.006 µg/mL
- inhibition in vivo at 25 mg/kg/day ([4]; Plasmodium berghei, ip, 96 h, read-out: Recovery Rate (suppression)): 63.5%
- Survival days (mean survival days, treatment group minus control group) [4]: 3.5 days
- EC50 at 72 h [3, 9]: 21.8 µg/mL

Compound: C=CCN1C(=O)/C(=c2/s/c(=C3/SCCN3C)c(=O)n2CC)S/C1=N\c1sc2cc(Cl)ccc2[n+]1C [Compound B-39]
- Survival days (mean survival days, treatment group minus control group) [4]: 4.5 days
- Recovery Rate (suppression) [4]: 77.7%
- EC50 Trypanosoma brucei rhod. [5]: 0.141 µg/mL
- EC50 Leishmania donovani [7]: 0.049 µg/mL
- EC50 cytotoxicity L6 ([6]; Table 2, 72 hours): 3.72 µg/mL
- EC50 cytotoxicity L6 ([6]; Table 3, 72 hours): 3.72 µg/mL
- EC50 cytotoxicity L6 ([6]; Table 4, 72 hours): 3.72 µg/mL
- EC50 Trypanosoma cruzi [1]: 0.141 µg/mL

Compound: Nc1nc(N)nc(Nc2ccc([As]3SCC(CO)S3)cc2)n1 (stereo not shown) [Melarsoprol, reference compound]
- Selective toxicity ([5]; EC50 rat L6 cells / EC50 African trypanosoma protozoa): 1300
- EC50 ([5]; Trypanosoma brucei, STIB900, 72 h, read-out: EC50 Trypanosoma brucei rhod.): 0.0024 µg/mL
- EC50 at 72 h ([3]; Table 2, rat L6 cells, Alamar Blue): 3.1 µg/mL

Compound: CCCCCCCCCCCCCCCCOP(=O)([O-])OCC[N+](C)(C)C [Miltefosine, reference compound]
- EC50 ([7]; Leishmania donovani, read-out: EC50 Leishmania donovani): 0.11 µg/mL (≈ 0.27 µM)
